{"source": "patent US10907191B2", "about": "“Method for measuring activity of oxidoreductase” (NATIONAL AGRICULTURE AND FOOD RESEARCH ORGANIZATION, priority 2016, dated 2021)", "molecular_target": "T1, HAO derived from Nitrosomonas europaea (Nitrosomonas europaea, UniProt Q50925)", "T1 construct": "HAO was purified from ammonia oxidizing bacteria, and stored in a solution state or after drying; made in house; host or cells: Nitrosomonas europaea cells (native enzyme, not recombinant), purified by column chromatography", "T1 sequence (Q50925 25-570)": "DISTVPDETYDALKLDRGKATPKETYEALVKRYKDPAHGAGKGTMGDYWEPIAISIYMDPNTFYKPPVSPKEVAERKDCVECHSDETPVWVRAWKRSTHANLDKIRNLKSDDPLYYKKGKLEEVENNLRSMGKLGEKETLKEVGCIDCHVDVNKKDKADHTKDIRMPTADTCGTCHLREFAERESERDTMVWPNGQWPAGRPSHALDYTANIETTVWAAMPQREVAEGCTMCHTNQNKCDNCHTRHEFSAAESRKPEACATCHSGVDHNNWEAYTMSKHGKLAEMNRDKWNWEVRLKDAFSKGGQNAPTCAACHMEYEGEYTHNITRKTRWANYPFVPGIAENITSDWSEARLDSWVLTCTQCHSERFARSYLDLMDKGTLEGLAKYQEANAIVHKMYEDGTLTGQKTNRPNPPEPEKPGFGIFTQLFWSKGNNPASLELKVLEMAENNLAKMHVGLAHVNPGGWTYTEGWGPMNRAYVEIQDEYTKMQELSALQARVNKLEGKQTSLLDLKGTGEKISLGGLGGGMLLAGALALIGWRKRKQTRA", "assay": "Determination of 50% inhibitory concentration against HAO by HAO fluorescence measurement (resazurin method)", "assay_type": "biochemical", "details": "n=4, nonlinear fitting", "procedure": "The HAO fluorescence activity measurement was carried out to the compound library for screening by the resazurin method, and the inhibitory effect of these compounds was verified. The 40 kinds of compounds were dissolved in DMSO for molecular biology (available from Wako Pure Chemical Industries, Ltd.) or ultrapure water at a concentration of 100 mM, and further 2-fold dilution series was prepared with 16 series (100 mM, 50 mM, 25 mM, 12.5 mM, 6.25 mM, 3.13 mM, 1.56 mM, 0.78 mM, 0.39 mM, 0.19 mM, 97 μM, 48.8 μM, 24.4 μM, 12.2 μM, 6.1 μM and 3.1 μM) (final concentration becomes 1/200 concentration thereof). […] The plate was inserted into a fluorescence plate reader attached with a reagent injector (infinite M1000 PRO, manufactured by Tecan Co.), and 25 μL of 4 mM hydroxylamine stock solution for 4-fold dilution was added per well, so that an amount of the hydroxylamine to that of the resazurin was made 10-fold amount (molar ratio) in the reaction system. After 2 hours of incubation, fluorescence measurement (excitation wavelength 562 nm: wavelength width 20 nm, measurement wavelength 592 nm: wavelength width 20 nm) was carried out. Candidate compound A was selected as a inhibitor which decreased the fluorescence intensity to 10% or less compared with without-inhibitor condition. […]", "note": "pIC50: −log10 of the molar value."}
{"smiles": "NNc1ccccc1", "note": "[phenylhydrazine]", "values": [{"measurement": "pIC50", "value": 6.56}]}
